# Assay results taken from article PMC12091851, “Replacing a Cereblon Ligand by a DDB1 and CUL4 Associated Factor 11 (DCAF11) Recruiter Converts a Selective Histone Deacetylase 6 PROTAC into a Pan‐Degrader” (Chemmedchem, 2025).
# Key:
# MM.1S cells = assay: Cell cycle analysis by PI staining and flow cytometry; format: cell-based, human; settings: 10 μM, 48 h
# Experimental: GraphPad Prism (GraphPad Software). […]
# Biotech), resuspended in 1 mL EtOH/D PBS (7/3 v/v), and fixed for 30 min at 4 °C. The samples were rehydrated with DPBS and treated with 5 µg /mL RNAse ( Catalog# EN0531 , ThermoFisher Scientific Inc.) for 15 min at room temperature. The staining was performed with 3 µM propidium iodide (in DPBS) for 15 min at room temperature and analyzed by flow cytometry ( Guava easyCyteTM, Luminex, […]
# Lakes, NJ, USA), using the Watson Pragmatic algorithm.[6] GraphPad Prism (GraphPad Software) was used for normalization, statistical analysis, and bar graph creation. Significance testing was performed with a one-way analysis of variance (ANOVA). Dunnett’s post-hoc test was employed to obtain […]
# Final DMSO concentration was 0.1%.
# Staining was performed with
# Fluorescence was measured by flow cytometry (Guava® easyCyteTM, Luminex, Austin, Texas). GraphPad Prism (GraphPad Software) was used for normalization, statistical analysis, and bar graph creation. Significance testing was performed with a one-way analysis of variance (ANOVA).
# Subsequently, cells were harvested and […]
# After 30 minutes of incubation at […]
# Dunnett’s post-hoc test was employed
# MDA-MB-231 cells = assay: Clonogenic growth assay; format: cell-based, human; settings: 10 μM for 48 h, nine days of growth
# Experimental: Figure 9 Clonogenic growth assay of DCAF11‐recruiting PROTACs. MDA‐MB‐231 cells were treated with 10 μM of the respective compound or vehicle (DMSO) for 48 hours. (A) Representative images of crystal violet stained colonies after nine days of growth. (B) Quantification of counted colonies, presented as mean ± standard deviation of three biological replicates, each performed in triplicates. Significance of quantification compared to vehicle: ns=p≥0.05; **=p≤0.01 and ***=p≤0.001. […]
# Subsequently, cells were harvested and
# plated in 6-well plates at a density of 750 cells per well in triplicates. The cell culture medium was
# changed after five days. Nine days after plating, the colonies were carefully washed with 500 µL DPBS
# and stained with 500 µL crystal violet solution (0.5% in methanol). After 30 minutes of incubation at
# room temperature, the wells were gently rinsed with deionized water. After counting the formed
# colonies, GraphPad Prism (GraphPad Software) was used for bar graph creation. Significance testing
# was performed with a one-way analysis of variance (ANOVA). Dunnett’s post-hoc test was employed
# to obtain significance levels of each mean compared to a reference mean value.
# HDAC2 = HDAC2 (Homo sapiens, UniProt Q92769); assay: Immunoblot HDAC2 degradation in MM.1S cell lysates; format: cell-based; set-up: endogenous in cells; host or cells: MM.1S; settings: MM1.S, MM.1S cells, 24 h, read-out: maximal degradation (Dmax) HDAC2
# Experimental: Figure 6 Examination of HDAC isoform degradation. MM.1S cells were treated with the indicated compounds (10 μM) or vehicle (DMSO) for 24 h. HDAC1, 2, 4, and 6 levels were analyzed by immunoblotting. (A) Representative images from a total of n=3 biological replicates. […]
# The cell lysis was performed as descripted in 3.2. Simple Western Immunoassay. Samples were denatured by Laemmli 2× Concentrate (Catalog# S3401-10VL, Sigma-Aldrich) for 5 min at 95 °C, and Precision Plus Protein Unstained Standard was used as molecular weight marker (Catalog# 1610363, Bio-Rad, Hercules, CA, USA). SDS-PAGE was performed with 10 or 12% Mini-PROTEAN TGX Stain-Free Gel (Catalog# 458035, Bio -Rad) at 200 V for 50 min (Catalog# 458035, Bio -Rad).
# Afterwards, proteins were transferred with the Trans -Blot Turbo Transfer System (Catalog# 1704150, Bio-Rad) to Immobilon-FL PVDF membranes (Catalog# IPFL00005, Mill ipore Merck, Burlington, MA, USA) at 1.0 A for 30 min and treated with 5% milk-powder solution for 1 h at room temperature under slight agitation. […] The ChemiDoc XRS+ System (Catalog# 1708265 , Bio-Rad) was used for detection and Image Lab Software 6.1 (Bio-Rad) for quantification. […]
# Sequence of HDAC2 (Q92769 whole entry, canonical isoform): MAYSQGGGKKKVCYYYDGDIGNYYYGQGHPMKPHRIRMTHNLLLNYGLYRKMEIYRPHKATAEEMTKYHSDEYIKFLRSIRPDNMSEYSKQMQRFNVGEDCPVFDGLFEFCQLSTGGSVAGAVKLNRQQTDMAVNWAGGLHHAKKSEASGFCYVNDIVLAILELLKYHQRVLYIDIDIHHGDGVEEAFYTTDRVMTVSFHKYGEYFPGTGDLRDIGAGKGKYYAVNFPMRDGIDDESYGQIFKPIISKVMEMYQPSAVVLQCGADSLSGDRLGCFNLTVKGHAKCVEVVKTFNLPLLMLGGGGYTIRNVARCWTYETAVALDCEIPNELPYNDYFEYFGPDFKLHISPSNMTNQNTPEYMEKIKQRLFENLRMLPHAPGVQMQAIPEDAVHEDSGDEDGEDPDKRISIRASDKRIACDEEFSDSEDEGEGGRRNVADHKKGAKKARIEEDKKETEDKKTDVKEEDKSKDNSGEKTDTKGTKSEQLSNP
smiles,measurement,setting,value
O=C(CCCCCCNC(=O)c1ccc(N(C(=O)CCl)C(C(=O)NCc2ccccc2)c2ccc(Cl)c(Cl)c2)cc1)NO (stereo not drawn) [Compound 2],effect on cell cycle phases,MM.1S cells,"increase of the sub G1 phase, while the S phase was decreased"
same,reduction of colonies (clonogenic growth),MDA-MB-231 cells,significant reduction of colonies
same,Dmax at 10 µM,HDAC2,51%
O=C(CCCCCCNC(=O)c1ccc(NC(=O)CCCCCCCCCCCN(C(=O)CCl)C(C(=O)NCc2ccccc2)c2ccc(Cl)c(Cl)c2)cc1)NO (stereo not drawn) [Compound 1j],effect on cell cycle phases,MM.1S cells,"increase of the sub G1 phase, while the S phase was decreased"
same,reduction of colonies (clonogenic growth),MDA-MB-231 cells,significant reduction of colonies
same,Dmax at 10 µM,HDAC2,71 to 76%
